Measurements from PMC7277860, “Viridistratins A−C, Antimicrobial and Cytotoxic Benzo[j]fluoranthenes from Stromata of Annulohypoxylon viridistratum (Hypoxylaceae, Ascomycota)” (Biomolecules, 2020).
Like-named read-outs stand apart in the source and are kept apart here.

Legend:
[1] = Cytotoxicity assay (MTT); format: cell-based; settings: for IC50: 5 days
Procedure: (§1) Compounds 1−5 were dissolved as described in the previous section. The cytotoxicity assay was initially performed against the cell lines L929 (mouse fibroblasts), as well as KB 3.1 (human papillomavirus-related endocervical adenocarcinoma), as described previously. A detailed protocol, as well as sources of the cell lines, is given in the Supporting Information.
(§2) After incubating the cell lines with a serial dilution of the test compounds (final range: 37 to 0.6 × 10^−3 µg/mL) for five days, the cells were dyed using 3-(4,5-dimethyl-2-thiazolyl)-2,5-diphenyl-2H-tetrazolium bromide (MTT), which is only converted to its purple formazan derivative by living cells. Then, the intensity of the purple derivative in relation to cells without additive (set to 100% viability) for each concentration of a test compound was quantified. For this, the absorption at 595 nm was measured using a microplate reader to calculate the percentage of cell viability. From this, the half-maximum inhibitory concentration (IC50, in µM) was calculated.
(§3) Protocol: Cytotoxicity Assay
(§4) The ass ay w as co nducted i n 9 6-well flat-bottom mi crotiter plates using the parameters summarised i n Tabl e S 2 and as described in [S2].
(§5) Cell lines L929 and KB 3.1 were incubated at 37 °C under 10 % CO2 in Gibco™ DMEM medium (Thermo Fisher Scientific, Waltham, MA, USA) supplemented with 10 % FBS. A microtiter plate was filled with 120 µL of this suspension (50,000/mL) in each well.
(§6) Seperately, another microtiter plate was filled with 100 µL of growth medium in each well. Then, 50 µL of the test compound sol utions (1 mg/mL) were given to wells of the first column in two replicates (one compound per row). C ell s wi thout addi ti ves, Me O H, and MeOH: DMSO 9+1 were used as negative controls. Starting from the first column, 50 µL of the solutions were gradually transferred to the ne xt col umn, the conte nts thoroughl y mi xed, and 50 µ L transferred to the following column. This created a serial dilution of the test compounds r anging from 333 µg/mL to 1.9 ×10−3 µg/mL. The remai ni ng 50 µL after column twelve were discarded. From this microtiter plate, 60 µL of the sol utions from 111 µg/ mL to 1.9×10−3 µg/mL were given to the first plate containing 120 µL of the cel l suspens i ons (i.e. the hi ghest concentrati on 333 µg/mL was not used). T his resulted i n fi nal compound concent rati ons rangi ng from […]
(§7) After 5 days of incubation under the aforeme ntioned i ncubati on condi ti ons, the half maximum inhibitory concentrati ons (IC 50) were determined using a colorimetric tetrazolium dye MTT assay [S3].
(§8) For this, 20 µL of a 5 mg/mL solution of 3-( 4 ,5 -dimethyl-2-thi azo l yl)-2 ,5 -di phenyl -2H-tetrazolium bromide (MTT) w ere added to each well and incubated for two hours at 37 °C. Then, the microtiter plate was centrifuged (3,000 r p m, 5 mi n) and the supernat ant remo ved by ho l di ng the pl ate upsi de-do wn and gentle shaking. Afterwards, the wells were washed using 100 µL of phosph ate buffered saline (PBS).
(§9) The plate was again centrifuged and the supernatant removed as described before. Then, 100 µL of an isopropanol:HCl solution (1L i sopropanol+4 mL HCl 37 % w/v) were added to the wells. After i ncubati ng fo r 10 mi n at ambi ent te mperature, the a bso r pti o n of the well s at 595 nm was measured wi th an I nfi ni te ® 200 Pro microplate reader (TECAN, Männedorf, Schweiz).
(§10) The absorption values of the cells without additives were averaged and set to 100 % cell viability.
(§11) Then, t he me ans of absorption of the two compound replicates were set in relation to the blank media.
(§12) These percentage values were plotted a gainst the concentration range (37 µg/mL to 0.6×10 −3 µg/mL).
(§13) The IC50 val ue w as read from the plot ( i n µg/mL) and the uni ts conversed to µM.
(§14) If effects were observed wi th cell lines L929 and KB 3.1 (IC50 < 50 µM), the other cell lines were tested using the same protocol.
(§15) Table S2: Cytotoxicity assay experiment parameters cell line type No. growth medium […]

[2] = test system: L929 (mouse fibroblasts); assay: Cytotoxicity assay (MTT); format: cell-based; settings: 5 days
Procedure: as §1, §2, §3, §4, §5, §6, §7, §8, §9, §10, §11, §12, §13, §14, §15

[3] = human, KB 3.1 human endocervical adenocarcinoma cells
[4] = mouse, L929 mouse fibroblast cells, L929 mouse fibroblasts

COc1cccc2c3c(ccc12)-c1ccc(O)c2c(OC)ccc-3c12 [Compound 3, viridistratin C]
IC50 at 5 days [1, 3]: > 50 µM
IC50 at 5 days [1, 4]: > 50 µM
IC50 ([2]; read-out: Cytotoxicity (IC50)): 61 µM

COc1cccc2c3c(ccc12)-c1ccc(O)c2c(O)ccc-3c12 [Compound 2, viridistratin B]
IC50 at 5 days [1, 3]: 17.2 µM
IC50 at 5 days [1, 4]: 17.2 µM

Oc1cccc2c3c(ccc12)-c1ccc(O)c2c(O)ccc-3c12 [Compound 1, viridistratin A]
IC50 at 5 days [1, 3]: 28.3 µM
IC50 at 5 days [1, 4]: 12.7 µM
IC50 ([2]; Mus musculus, L929, 120 h, value in µg/mL, read-out: half-maximum inhibitory concentration (IC50)): 8.5 µg/mL

O=C1CCC(=O)c2c1c(O)cc1c2-c2ccc(O)c3c(O)ccc-1c23 [Compound 5, truncatone C]
IC50 at 5 days [1, 3]: 30.1 µM
IC50 at 5 days [1, 4]: 16.3 µM

O=C1C[C@H]2C(=C3CCC(=O)c4c(O)ccc2c43)c2cccc(O)c21 [Compound 4, truncatone A]
IC50 ([1]; KB 3.1 human endocervical adenocarcinoma): 44 µM
IC50 ([1]; L929 mouse fibroblasts): 10.4 µM
IC50 ([2]; 120 h, value in µg/mL, read-out: half-maximum inhibitory concentration (IC50)): 3.3 µg/mL
